Reference: the NIST ThermoML archive (doi:10.1021/acs.jced.9b00752)

Assay: mn = molality of the nth substance listed, in mol/kg
Details: 100 kPa, Liquid, Vibrating tube method

N[C@@H](Cc1c[nH]c2ccccc12)C(=O)O [L-tryptophan] + O
mass density [kg/m3]
Details | m1 = 0.0035 | m1 = 0.009 | m1 = 0.0179 | m1 = 0.0306 | m1 = 0.0352 | m1 = 0.0429 | m1 = 0.0536 | m1 = 0.0595 | m1 = 0.0659 | m1 = 0.0769
273.65 K | 1000.09 | 1000.46 | 1001.04 | 1001.86 | 1002.16 | 1002.66 | 1003.36 | 1003.74 | 1004.14 | 1004.85
274.15 K | 1000.12 | 1000.48 | 1001.06 | 1001.88 | 1002.18 | 1002.68 | 1003.38 | 1003.75 | 1004.16 | 1004.87
274.65 K | 1000.14 | 1000.5 | 1001.08 | 1001.9 | 1002.2 | 1002.7 | 1003.39 | 1003.77 | 1004.17 | 1004.88
275.15 K | 1000.15 | 1000.52 | 1001.09 | 1001.91 | 1002.22 | 1002.71 | 1003.4 | 1003.78 | 1004.18 | 1004.88
275.65 K | 1000.17 | 1000.53 | 1001.11 | 1001.92 | 1002.23 | 1002.72 | 1003.41 | 1003.79 | 1004.19 | 1004.89
276.15 K | 1000.18 | 1000.54 | 1001.11 | 1001.93 | 1002.23 | 1002.73 | 1003.41 | 1003.79 | 1004.19 | 1004.89
276.65 K | 1000.18 | 1000.54 | 1001.12 | 1001.93 | 1002.23 | 1002.72 | 1003.41 | 1003.78 | 1004.19 | 1004.88
277.15 K | 1000.18 | 1000.55 | 1001.12 | 1001.93 | 1002.23 | 1002.72 | 1003.41 | 1003.78 | 1004.18 | 1004.88
277.65 K | 1000.18 | 1000.54 | 1001.11 | 1001.92 | 1002.22 | 1002.72 | 1003.4 | 1003.77 | 1004.17 | 1004.87
278.15 K | 1000.17 | 1000.53 | 1001.1 | 1001.91 | 1002.21 | 1002.7 | 1003.39 | 1003.76 | 1004.16 | 1004.85
278.65 K | 1000.16 | 1000.52 | 1001.09 | 1001.9 | 1002.2 | 1002.69 | 1003.37 | 1003.74 | 1004.14 | 1004.83
279.15 K | 1000.15 | 1000.51 | 1001.08 | 1001.88 | 1002.18 | 1002.67 | 1003.35 | 1003.72 | 1004.12 | 1004.81
279.65 K | 1000.13 | 1000.49 | 1001.06 | 1001.86 | 1002.16 | 1002.65 | 1003.33 | 1003.7 | 1004.09 | 1004.78
280.15 K | 1000.11 | 1000.47 | 1001.03 | 1001.84 | 1002.13 | 1002.62 | 1003.3 | 1003.67 | 1004.07 | 1004.75
280.65 K | 1000.09 | 1000.44 | 1001.01 | 1001.81 | 1002.11 | 1002.59 | 1003.27 | 1003.64 | 1004.03 | 1004.72
281.15 K | 1000.06 | 1000.41 | 1000.98 | 1001.78 | 1002.07 | 1002.56 | 1003.23 | 1003.6 | 1004 | 1004.68
281.65 K | 1000.02 | 1000.38 | 1000.94 | 1001.74 | 1002.04 | 1002.52 | 1003.2 | 1003.56 | 1003.96 | 1004.64
282.15 K | 999.99 | 1000.34 | 1000.9 | 1001.71 | 1002 | 1002.48 | 1003.15 | 1003.52 | 1003.92 | 1004.6
282.65 K | 999.95 | 1000.3 | 1000.87 | 1001.66 | 1001.96 | 1002.44 | 1003.11 | 1003.48 | 1003.87 | 1004.56
283.15 K | 999.908 | 1000.26 | 1000.82 | 1001.62 | 1001.91 | 1002.39 | 1003.06 | 1003.43 | 1003.82 | 1004.5
